pIC50: −log10 of the molar value.

T2 sequence (P04626 with tags, fused parts or gaps INS775V/G776C): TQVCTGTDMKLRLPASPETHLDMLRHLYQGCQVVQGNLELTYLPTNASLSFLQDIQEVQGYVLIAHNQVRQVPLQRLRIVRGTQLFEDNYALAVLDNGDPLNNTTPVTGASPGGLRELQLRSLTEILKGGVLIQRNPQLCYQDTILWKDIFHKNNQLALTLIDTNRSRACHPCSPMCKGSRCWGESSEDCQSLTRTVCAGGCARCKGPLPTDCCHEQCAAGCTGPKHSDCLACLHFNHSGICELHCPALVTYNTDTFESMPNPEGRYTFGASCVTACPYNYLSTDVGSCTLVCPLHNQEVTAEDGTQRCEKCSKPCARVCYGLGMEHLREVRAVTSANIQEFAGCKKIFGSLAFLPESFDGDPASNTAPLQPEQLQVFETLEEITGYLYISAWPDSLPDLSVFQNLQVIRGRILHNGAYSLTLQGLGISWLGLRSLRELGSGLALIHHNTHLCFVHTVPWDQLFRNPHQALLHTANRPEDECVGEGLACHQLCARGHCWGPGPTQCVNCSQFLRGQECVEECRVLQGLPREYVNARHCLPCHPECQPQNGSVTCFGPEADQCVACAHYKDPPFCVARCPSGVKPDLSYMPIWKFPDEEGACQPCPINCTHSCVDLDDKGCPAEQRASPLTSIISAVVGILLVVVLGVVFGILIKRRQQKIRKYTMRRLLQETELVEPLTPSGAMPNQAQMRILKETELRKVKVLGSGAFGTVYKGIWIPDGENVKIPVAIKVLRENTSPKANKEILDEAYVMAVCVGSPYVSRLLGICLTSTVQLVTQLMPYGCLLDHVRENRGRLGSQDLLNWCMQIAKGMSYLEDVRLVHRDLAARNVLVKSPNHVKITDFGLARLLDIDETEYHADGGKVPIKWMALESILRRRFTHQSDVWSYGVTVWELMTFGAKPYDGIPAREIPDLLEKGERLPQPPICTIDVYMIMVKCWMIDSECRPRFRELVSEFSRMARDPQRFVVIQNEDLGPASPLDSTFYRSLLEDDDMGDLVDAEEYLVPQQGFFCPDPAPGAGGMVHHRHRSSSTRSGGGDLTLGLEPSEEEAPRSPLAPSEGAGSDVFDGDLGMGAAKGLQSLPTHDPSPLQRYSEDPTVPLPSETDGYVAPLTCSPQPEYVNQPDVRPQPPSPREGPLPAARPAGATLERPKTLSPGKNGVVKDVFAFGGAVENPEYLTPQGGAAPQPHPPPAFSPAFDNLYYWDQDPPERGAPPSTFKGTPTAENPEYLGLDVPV
Ba/F3 HER2-YVMA cells (HER2-A775_G776insYVMA), sequence (P04626 with tags, fused parts or gaps DUP772-775): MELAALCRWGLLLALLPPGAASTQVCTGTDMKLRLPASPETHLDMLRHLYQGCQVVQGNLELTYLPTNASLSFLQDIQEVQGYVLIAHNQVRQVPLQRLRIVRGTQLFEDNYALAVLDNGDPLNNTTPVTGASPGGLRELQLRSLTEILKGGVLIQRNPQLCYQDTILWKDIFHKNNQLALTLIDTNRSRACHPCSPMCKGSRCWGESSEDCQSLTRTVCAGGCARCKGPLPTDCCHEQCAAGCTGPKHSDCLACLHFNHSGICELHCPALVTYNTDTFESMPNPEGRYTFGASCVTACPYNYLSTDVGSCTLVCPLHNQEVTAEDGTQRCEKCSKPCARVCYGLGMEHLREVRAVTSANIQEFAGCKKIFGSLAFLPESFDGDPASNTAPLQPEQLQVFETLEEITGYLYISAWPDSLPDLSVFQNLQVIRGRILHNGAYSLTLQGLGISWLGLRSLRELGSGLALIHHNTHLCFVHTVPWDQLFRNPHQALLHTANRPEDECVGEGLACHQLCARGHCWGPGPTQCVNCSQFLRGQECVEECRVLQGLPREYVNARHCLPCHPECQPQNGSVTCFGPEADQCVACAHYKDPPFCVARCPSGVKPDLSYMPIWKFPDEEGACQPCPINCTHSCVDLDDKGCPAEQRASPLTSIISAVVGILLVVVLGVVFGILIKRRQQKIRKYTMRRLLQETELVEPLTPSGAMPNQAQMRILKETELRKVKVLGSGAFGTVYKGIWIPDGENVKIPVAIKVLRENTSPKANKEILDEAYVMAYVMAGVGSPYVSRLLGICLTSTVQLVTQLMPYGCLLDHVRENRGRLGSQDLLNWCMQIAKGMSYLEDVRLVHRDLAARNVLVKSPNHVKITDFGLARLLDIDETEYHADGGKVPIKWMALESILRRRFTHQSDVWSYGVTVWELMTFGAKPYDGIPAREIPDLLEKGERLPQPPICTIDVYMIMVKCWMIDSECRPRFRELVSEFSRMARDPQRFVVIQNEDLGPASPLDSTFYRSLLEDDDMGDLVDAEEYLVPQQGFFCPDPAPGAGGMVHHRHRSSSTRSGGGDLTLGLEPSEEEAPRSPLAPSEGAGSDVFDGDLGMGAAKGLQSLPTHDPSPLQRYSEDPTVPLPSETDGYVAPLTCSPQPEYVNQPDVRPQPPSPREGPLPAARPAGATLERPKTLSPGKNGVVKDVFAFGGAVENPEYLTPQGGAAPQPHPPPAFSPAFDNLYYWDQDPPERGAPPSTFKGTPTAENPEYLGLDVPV

In one experiment the test system is A431 cells (amplification of the wild-type EGFR gene), phospho-ERK Thr202/Tyr204. The experiment in a line: Cellular phosphorylation assay, pERK (phospho-ERK Thr202/Tyr204 AlphaLISA) in A431. The following applies: Homo sapiens, A-431, compound incubated for 5 hours. It counts as cell-based. As to the method: (§1) Besides Ba/F3s, two commercially available cell lines were also used. NCI-H1781 is a HER2 exon20 insertion cell line bearing HER2-A775_G776insV-G776C. A431 bears amplification of the wild-type EGFR gene.
(§2) Ba/F3 cells were plated at 50,000 cells/well (40 μL), or NCI-H1781 cells or A431 cells were plated at 12,500 cells/well (40 μL), in a 384-well plate for 1 day. Test compounds (40 nL) were then added in a 3-fold dilution series using the TECAN EV0200 liquid handler and incubated for 5 hours. Only for pEGFR analysis in A431, the cells were briefly stimulated with EGF (30 ng/mL) for 15 minutes. Media were removed using Apricot Designs. Phosphoproteins were analyzed using the phospho-EGFR Tyr1068 AlphaLISA kit (“pEGFR”; PerkinElmer #ALSU-PEGFR-B10K;) phospho-ERK Thr202/Tyr204 AlphaLISA kit (“pERK”; PerkinElmer #ALSU-PERK-A10K) or the phospho-ErbB2 Tyr1221/1222 AlphaLISA kit (“pHER2”; PerkinElmer #ALSU-PEB2-A10K;) according to the manufacturer's instructions. Briefly, cells were lysed with lysis buffer (10 μL) containing protease-inhibitor and phosphatase-inhibitor cocktails. The lysates were transferred into a new optical plate, incubated with the acceptor mix (5 μL) for 1.5-2 hours at room temperature in darkness, and then mixed with the donor mix (5 μL) overnight in darkness. Fluorescence was measured on a plate reader using the appropriate AlphaLISA settings. Half-maximal inhibitory concentration (IC50) was calculated from percent inhibition and inhibitor concentration using four-parameter logistic regression. […]
(Bead proximity is the source of the signal in Alpha formats.)
Turning to `C=CC(=O)N1CCN(c2ncc3ncnc(Nc4cc(C)c(Oc5ccn6ncnc6c5)cc4F)c3n2)C[C@@H]1C` [Example 36], the pIC50 was ≤ 6.00.

In the case of `C=CC(=O)N1CC=C(c2ncc3ncnc(Nc4ccc(Oc5ccn6ncnc6c5)c(C)c4F)c3n2)CC1` [Example 37], the pIC50 was ≤ 6.00.

With `C=CC(=O)N1CCN(c2ncc3ncnc(Nc4ccc(Oc5ccn6ncnc6c5)c(C(F)(F)F)c4F)c3n2)C[C@H]1C` [Example 39], the pIC50 was ≤ 6.00.

As for `C=CC(=O)N1C[C@@H]2CC[C@H]1CN2c1ncc2ncnc(Nc3ccc(Oc4ccn5ncnc5c4)c(C)c3F)c2n1` [Example 41], the pIC50 is > 7.00.

`C=CC(=O)N1CCN(c2ncc3ncnc(Nc4ccc(Oc5ccn6ncnc6c5)c(C)c4F)c3n2)[C@@H](C)C1` [Example 43] showed a pIC50 of 6.30 to 7.00.

`C=CC(=O)N1C[C@H]2CC[C@@H]1CN2c1ncc2ncnc(Nc3ccc(Oc4ccn5ncnc5c4)c(C)c3F)c2n1` [Example 45]: the pIC50 is ≤ 6.00.

Regarding `C=CC(=O)N1CCN(c2ncc3ncnc(Nc4cc(C)c(Oc5cc(C)n6ncnc6c5)cc4F)c3n2)C[C@H]1C` [Example 51], the pIC50 is ≤ 6.00.

Another experiment deals with T1, wild-type EGFR (A431 cells) (Homo sapiens, UniProt P00533).
T1 construct: A431 bears amplification of the wild-type EGFR gene; endogenous in cells; host or cells: A431
T1 sequence (P00533 25-1210): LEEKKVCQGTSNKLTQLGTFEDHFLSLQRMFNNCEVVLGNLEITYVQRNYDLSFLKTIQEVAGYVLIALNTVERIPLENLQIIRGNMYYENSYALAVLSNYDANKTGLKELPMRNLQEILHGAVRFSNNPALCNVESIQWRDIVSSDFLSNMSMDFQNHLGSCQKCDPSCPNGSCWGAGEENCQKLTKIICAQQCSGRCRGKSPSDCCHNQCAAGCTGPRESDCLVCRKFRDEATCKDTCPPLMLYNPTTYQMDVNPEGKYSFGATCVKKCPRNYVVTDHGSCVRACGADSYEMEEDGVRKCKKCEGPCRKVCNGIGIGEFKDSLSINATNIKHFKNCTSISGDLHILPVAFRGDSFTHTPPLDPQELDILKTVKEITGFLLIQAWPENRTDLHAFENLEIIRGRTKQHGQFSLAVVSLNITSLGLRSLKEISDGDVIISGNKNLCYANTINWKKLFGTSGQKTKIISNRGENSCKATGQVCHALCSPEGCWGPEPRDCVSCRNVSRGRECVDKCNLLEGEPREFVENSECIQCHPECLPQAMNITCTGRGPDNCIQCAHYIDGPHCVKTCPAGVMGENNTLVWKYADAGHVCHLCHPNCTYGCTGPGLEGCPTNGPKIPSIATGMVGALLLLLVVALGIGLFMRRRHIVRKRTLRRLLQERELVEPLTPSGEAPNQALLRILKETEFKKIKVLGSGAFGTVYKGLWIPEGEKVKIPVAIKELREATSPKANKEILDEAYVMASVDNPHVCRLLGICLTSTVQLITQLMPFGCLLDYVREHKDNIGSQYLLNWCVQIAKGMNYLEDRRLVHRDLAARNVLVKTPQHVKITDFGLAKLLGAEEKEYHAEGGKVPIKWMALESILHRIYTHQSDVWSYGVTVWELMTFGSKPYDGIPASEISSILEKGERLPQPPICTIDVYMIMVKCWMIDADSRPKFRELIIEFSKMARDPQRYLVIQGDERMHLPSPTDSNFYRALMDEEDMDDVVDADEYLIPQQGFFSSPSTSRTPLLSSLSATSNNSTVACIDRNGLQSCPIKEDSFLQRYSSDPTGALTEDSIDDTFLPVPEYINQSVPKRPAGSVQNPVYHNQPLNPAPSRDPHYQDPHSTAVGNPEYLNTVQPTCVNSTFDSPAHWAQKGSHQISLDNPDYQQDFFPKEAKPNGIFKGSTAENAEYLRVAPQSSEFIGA
Briefly: Cellular phosphorylation assay, pEGFR (phospho-EGFR Tyr1068 AlphaLISA) in A431. It counts as cell-based. The following applies: compound incubated for 5 hours, EGF (30 ng/mL) for 15 minutes. As to the method:
as §1, §2
Take `C=CC(=O)N1CC=C(c2ccc3ncnc(Nc4ccc(Oc5ccn6ncnc6c5)c(C)c4)c3c2OC)CC1` [Example 19]: the pIC50 is ≤ 6.00.

With `C=CC(=O)N1CC2(C1)CN(c1ccc3ncnc(Nc4ccc(Oc5ccn6ncnc6c5)c(C)c4)c3n1)C2` [Example 23], the pIC50 is ≤ 6.00.

On to `C=CC(=O)N1CCN(c2ncc3ncnc(Nc4cc(C)c(Oc5ccn6ncnc6c5)cc4F)c3n2)C[C@@H]1C` [Example 36], for which the pIC50 was ≤ 6.00.

For the compound `C=CC(=O)N1CC=C(c2ncc3ncnc(Nc4ccc(Oc5ccn6ncnc6c5)c(C)c4F)c3n2)CC1` [Example 37], the pIC50 was 6.00 to 6.30.

For the compound `C=CC(=O)N1CCN(c2ncc3ncnc(Nc4ccc(Oc5ccn6ncnc6c5)c(C(F)(F)F)c4F)c3n2)C[C@H]1C` [Example 39], the pIC50 was ≤ 6.00.

For `C=CC(=O)N1C[C@@H]2CC[C@H]1CN2c1ncc2ncnc(Nc3ccc(Oc4ccn5ncnc5c4)c(C)c3F)c2n1` [Example 41], the pIC50 is > 7.00.

`C=CC(=O)N1CCN(c2ncc3ncnc(Nc4ccc(Oc5ccn6ncnc6c5)c(C)c4F)c3n2)[C@@H](C)C1` [Example 43] gave a pIC50 of 6.30 to 7.00.

Regarding `C=CC(=O)N1C[C@H]2CC[C@@H]1CN2c1ncc2ncnc(Nc3ccc(Oc4ccn5ncnc5c4)c(C)c3F)c2n1` [Example 45], the pIC50 was ≤ 6.00.

For `C=CC(=O)N1CCN(c2ncc3ncnc(Nc4cc(C)c(Oc5cc(C)n6ncnc6c5)cc4F)c3n2)C[C@H]1C` [Example 51], the pIC50 is ≤ 6.00.

In turn, `C=CC(=O)N1CCC=C(c2ncc3ncnc(Nc4ccc(Oc5ccn6ncnc6c5)c(C)c4F)c3n2)CC1` [Example 56] showed a pIC50 of 6.00 to 6.30.

Take `C=CC(=O)N1CC=C(c2ncc3ncnc(Nc4cc(C)c(Oc5ccn6ncnc6c5)cc4F)c3n2)C[C@@H]1C` [Example 59]: the pIC50 was ≤ 6.00.

The next experiment addresses T2, HER2-A775_G776insV-G776C (NCI-H1781 cells) (Homo sapiens, UniProt P04626, G776C/INS775V).
T2 construct: NCI-H1781 is a HER2 exon20 insertion cell line bearing HER2-A775_G776insV-G776C; endogenous in cells; host or cells: NCI-H1781
The experiment in a line: Cellular phosphorylation assay, pHER2 (phospho-ErbB2 Tyr1221/1222 AlphaLISA) in NCI-H1781. It counts as cell-based. The settings on record: compound incubated for 5 hours. The method, then: as §1
Ba/F3 cells were plated at 50,000 cells/well (40 μL), or NCI-H1781 cells or A431 cells were plated at 12,500 cells/well (40 μL), in a 384-well plate for 1 day. Test compounds (40 nL) were then added in a 3-fold dilution series using the TECAN EV0200 liquid handler and incubated for 5 hours. Only for pEGFR analysis in A431, the cells were briefly stimulated with EGF (30 ng/mL) for 15 minutes. Media were removed using Apricot Designs. Phosphoproteins were analyzed using the phospho-EGFR Tyr1068 AlphaLISA kit (“pEGFR”; PerkinElmer #ALSU-PEGFR-B10K;) phospho-ERK Thr202/Tyr204 AlphaLISA kit (“pERK”; PerkinElmer #ALSU-PERK-A10K) or the phospho-ErbB2 Tyr1221/1222 AlphaLISA kit (“pHER2”; PerkinElmer #ALSU-PEB2-A10K;) according to the manufacturer's instructions. Briefly, cells were lysed with lysis buffer (10 μL) containing protease-inhibitor and phosphatase-inhibitor cocktails. The lysates were transferred into a new optical plate, incubated with the acceptor mix (5 μL) for 1.5-2 hours at room temperature in darkness, and then mixed with the donor mix (5 μL) overnight in darkness. Fluorescence was measured on a plate reader using the appropriate AlphaLISA settings. Half-maximal inhibitory concentration (IC50) was calculated from percent inhibition and inhibitor concentration using four-parameter logistic regression.
HER2 is phosphorylated when activated. Therefore, phospho-HER2 indicates HER2 activity in the cells.
As for `C=CC(=O)N1CC=C(c2ccc3ncnc(Nc4ccc(Oc5ccn6ncnc6c5)c(C)c4)c3c2OC)CC1` [Example 19], the pIC50 is > 7.00.

Regarding `C=CC(=O)N1CC2(C1)CN(c1ccc3ncnc(Nc4ccc(Oc5ccn6ncnc6c5)c(C)c4)c3n1)C2` [Example 23], the pIC50 was > 7.00.

With `C=CC(=O)N1CCN(c2ncc3ncnc(Nc4cc(C)c(Oc5cc(C)n6ncnc6c5)cc4F)c3n2)C[C@H]1C` [Example 51], the negative-log IC50 (pIC50) was > 7.00.

Regarding `C=CC(=O)N1CCC=C(c2ncc3ncnc(Nc4ccc(Oc5ccn6ncnc6c5)c(C)c4F)c3n2)CC1` [Example 56], the negative-log IC50 (pIC50) is > 7.00.

With `C=CC(=O)N1CC=C(c2ncc3ncnc(Nc4cc(C)c(Oc5ccn6ncnc6c5)cc4F)c3n2)C[C@@H]1C` [Example 59], the negative-log IC50 (pIC50) was > 7.00.

The next experiment has as its target Ba/F3 HER2-YVMA cells (HER2-A775_G776insYVMA) (Homo sapiens, UniProt P04626, DUP772-775, cells depend on it). The experiment in a line: Cell proliferation assay (CellTiter-Glo), Ba/F3 HER2-YVMA. It counts as cell-based. The settings on record: read-out: Ba/F3 HER2-YVMA cell proliferation IC50. The method, then:
The gene encoding HER2-A775_G776insYVMA (“HER2-YVMA”) was synthesized at GeneRay, cloned into the retroviral construct pMSCV-puro (Biovector), and packaged into retroviral particles. The virus was used to infect Ba/F3 cells (RIKEN) at multiplicity of infection=1 or 10 for 1 day. Infected cells were rescued in media (RPMI-1640 with 10% fetal bovine serum and 1% streptomycin and penicillin) supplemented with mouse IL-3 (10 ng/mL) for 2 days, and stable cell lines were selected by IL-3 withdrawal and puromycin (0.8 μg/mL) for 7 days. Monoclones were selected by single-cell dilution in IL-3-free medium containing puromycin ([…]). Transformation of desired genes was confirmed by Sanger sequencing and western blot using the following antibody: HER2 (CST #2242).
(§3) Ba/F3 cells were plated at 1,000 cells/well (40 μL), or NCI-H1781 or A431 cells were plated at 2,000 cells/well (40 μL), in a 384-well plate for 1 day. Test compounds (40 nL) were then added in a 3-fold dilution series using the TECAN EV0200 liquid handler and incubated for 48 hours (“2 days”), 72 hours (“3 days”), or 48 hours followed by renewal of compound solutions and further incubation for 72 hours (“2 days/3 days”). The 72-hour assay was necessary for NCI-H1781 cells, which are slow-growing, and the resupply of fresh compounds on day 3 obviated the potential confounding effects arising from compound degradation in cell media over 72 hours. Plates were equilibrated at room temperature for 15 minutes followed by addition of 40 μL CellTiter-Glo reagent (Promega). Luminescence was measured on a plate reader. Half-maximal inhibitory concentration (IC50) was calculated from percent inhibition and inhibitor concentration using four-parameter logistic regression. […] In these cases, the regression curve was drawn only for the first inflexion to accurately measure on-target growth inhibitory effect.
(§4) Ba/F3, NCI-H1781, and A431 proliferation is driven by the oncogenes in the same way that cancer cell proliferation in humans is driven by the expression of equivalent oncogenes.
In the case of `C=CC(=O)N1CC=C(c2ccc3ncnc(Nc4ccc(Oc5ccn6ncnc6c5)c(C)c4)c3c2OC)CC1` [Example 19], the GI50 lay within 100 to 500 nM.

As to `C=CC(=O)N1CC2(C1)CN(c1ccc3ncnc(Nc4ccc(Oc5ccn6ncnc6c5)c(C)c4)c3n1)C2` [Example 23], the GI50 lay in the range of 500 to 1000 nM.

As for `C=CC(=O)N1CCN(c2ncc3ncnc(Nc4cc(C)c(Oc5ccn6ncnc6c5)cc4F)c3n2)C[C@@H]1C` [Example 36], the GI50 fell in the range of 100 to 500 nM.

Turning to `C=CC(=O)N1CC=C(c2ncc3ncnc(Nc4ccc(Oc5ccn6ncnc6c5)c(C)c4F)c3n2)CC1` [Example 37], the GI50 is < 100 nM.

Take `C=CC(=O)N1CCN(c2ncc3ncnc(Nc4ccc(Oc5ccn6ncnc6c5)c(C(F)(F)F)c4F)c3n2)C[C@H]1C` [Example 39]: the GI50 was 100 to 500 nM.

Turning to `C=CC(=O)N1C[C@@H]2CC[C@H]1CN2c1ncc2ncnc(Nc3ccc(Oc4ccn5ncnc5c4)c(C)c3F)c2n1` [Example 41], the GI50 is < 100 nM.

With `C=CC(=O)N1CCN(c2ncc3ncnc(Nc4ccc(Oc5ccn6ncnc6c5)c(C)c4F)c3n2)[C@@H](C)C1` [Example 43], the GI50 is < 100 nM.

Regarding `C=CC(=O)N1C[C@H]2CC[C@@H]1CN2c1ncc2ncnc(Nc3ccc(Oc4ccn5ncnc5c4)c(C)c3F)c2n1` [Example 45], the GI50 is < 100 nM.

For the compound `C=CC(=O)N1CCN(c2ncc3ncnc(Nc4cc(C)c(Oc5cc(C)n6ncnc6c5)cc4F)c3n2)C[C@H]1C` [Example 51], the GI50 was < 100 nM.

For `C=CC(=O)N1CCC=C(c2ncc3ncnc(Nc4ccc(Oc5ccn6ncnc6c5)c(C)c4F)c3n2)CC1` [Example 56], the GI50 is < 100 nM.

As to `C=CC(=O)N1CC=C(c2ncc3ncnc(Nc4cc(C)c(Oc5ccn6ncnc6c5)cc4F)c3n2)C[C@@H]1C` [Example 59], the GI50 was in the range of 500 to 1000 nM.

The test system of another experiment is NCI-H1781 cells (HER2-A775_G776insV-G776C). Briefly: Cell proliferation assay (CellTiter-Glo), NCI-H1781. It counts as cell-based. The settings on record: first inflexion of biphasic curve. As to the method: as §1, §3, §4
For orientation: In ATP-based viability assays light output follows the ATP content of the culture.
Regarding `C=CC(=O)N1CCN(c2ncc3ncnc(Nc4cc(C)c(Oc5ccn6ncnc6c5)cc4F)c3n2)C[C@@H]1C` [Example 36], the pIC50 is 6.30 to 7.00.

Regarding `C=CC(=O)N1CC=C(c2ncc3ncnc(Nc4ccc(Oc5ccn6ncnc6c5)c(C)c4F)c3n2)CC1` [Example 37], the pIC50 was > 7.00.

In turn, `C=CC(=O)N1CCN(c2ncc3ncnc(Nc4ccc(Oc5ccn6ncnc6c5)c(C(F)(F)F)c4F)c3n2)C[C@H]1C` [Example 39] had a pIC50 of 6.00 to 6.30.

Take `C=CC(=O)N1C[C@@H]2CC[C@H]1CN2c1ncc2ncnc(Nc3ccc(Oc4ccn5ncnc5c4)c(C)c3F)c2n1` [Example 41]: the pIC50 was > 7.00.

On to `C=CC(=O)N1CCN(c2ncc3ncnc(Nc4ccc(Oc5ccn6ncnc6c5)c(C)c4F)c3n2)[C@@H](C)C1` [Example 43], for which the pIC50 was > 7.00.

For `C=CC(=O)N1C[C@H]2CC[C@@H]1CN2c1ncc2ncnc(Nc3ccc(Oc4ccn5ncnc5c4)c(C)c3F)c2n1` [Example 45], the pIC50 was 6.30 to 7.00.

By pIC50 is commonly meant the negative decadic logarithm of the IC50, by convention in mol/L. A high value points to a small IC50.

The values are drawn from US12037346B2, “Amino-substituted heteroaryls for treating cancers with EGFR mutations” (Nuvalent, Inc., priority 2021, dated 2024).
